26 molecules from patent US20260356851A1, “TRICYCLIC COMPOUNDS AND USES THEREOF” (HUTCHMED LIMITED, priority 2023, published 2026) can be followed below.

Common to all, as to assay type: cell-based
Assay [1] concerns the target T1, pERK1/2 (Thr202/Tyr204), PANC-1 (KRAS G121D) (Homo sapiens, UniProt P01116, G12D).
T1 construct: pERK1/2 HTRF read-out
The assay is described as follows: Assay of intracellular pERK1/2 (Thr202/Tyr204) phosphorylation in PANC-1 cells (KRAS G12D). The following applies: pERK1/2, 2 days, read-out: PANC-1 (KRAS G12D) IC50. Summed up:
(§1)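 HTRF detection of Thr202/Tyr204-phosphorylated ERK1/2 (665/615 nm ratio) in lysates from cells treated 2 days with serially 3-fold diluted compound.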

Assay [2] concerns the target T2, pERK1/2 (Thr202/Tyr204), NCI-1H358 (KRAS G12C) (Homo sapiens, UniProt P01116, G12C).
T2 construct: pERK1/2 HTRF read-out
The assay is described as follows: Assay of intracellular pERK1/2 (Thr202/Tyr204) phosphorylation in NCI-H358 cells (KRAS G12C). The following applies: pERK1/2, 2 days, read-out: NCI-H358 (KRAS G12C) IC50. The gist of the method:
as §1

Assay [3] has as its target T3, pERK1/2 (Thr202/Tyr204), NCI-1H441 (KRAS G12V) (Homo sapiens, UniProt P01116, G12V).
T3 construct: pERK1/2 HTRF read-out
In words: Assay of intracellular pERK1/2 (Thr202/Tyr204) phosphorylation in NCI-H441 cells (KRAS G12V). Conditions: pERK1/2, 2 days, read-out: NCI-H441 (KRAS G12V) IC50. The gist of the method:
as §1

T2 sequence (P01116 1-188 isoform P01116-2 G12C): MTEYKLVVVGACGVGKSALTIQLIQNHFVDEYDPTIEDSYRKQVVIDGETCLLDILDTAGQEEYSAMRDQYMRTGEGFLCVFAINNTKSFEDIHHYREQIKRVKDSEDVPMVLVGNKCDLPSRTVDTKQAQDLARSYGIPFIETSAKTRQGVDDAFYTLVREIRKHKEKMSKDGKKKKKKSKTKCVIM
T1 sequence (P01116 1-188 isoform P01116-2 G12D): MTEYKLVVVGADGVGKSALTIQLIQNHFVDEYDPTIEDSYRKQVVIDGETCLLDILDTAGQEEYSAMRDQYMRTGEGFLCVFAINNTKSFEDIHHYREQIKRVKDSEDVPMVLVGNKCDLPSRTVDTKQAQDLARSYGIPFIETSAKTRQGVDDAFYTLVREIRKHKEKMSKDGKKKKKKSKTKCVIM
T3 sequence (P01116 1-188 isoform P01116-2 G12V): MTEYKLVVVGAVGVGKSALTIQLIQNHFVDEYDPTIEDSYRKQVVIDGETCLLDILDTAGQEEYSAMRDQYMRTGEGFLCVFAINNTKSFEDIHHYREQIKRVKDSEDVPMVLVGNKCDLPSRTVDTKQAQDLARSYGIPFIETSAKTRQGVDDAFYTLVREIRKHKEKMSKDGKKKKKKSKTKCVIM

Take `Cc1c(F)c(N)cc(-c2nc3c4c(nc(OC[C@@]56CCCN5C[C@H](F)C6)nc4c2F)N(C(C)c2cccnc2N)CCO3)c1C(F)(F)F` (stereo partly drawn) [Compound 120]: the half-inhibitory concentration (IC50) in assay [1] amounted to 1 nM; in assay [2], 0.3 nM; in assay [3], 0.4 nM.

Regarding `Cc1cc(N)cc(-c2nc3c4c(nc(OC[C@@]56CCCN5C[C@H](F)C6)nc4c2F)N(C(C)c2cccnn2)CCO3)c1C(F)(F)F` (stereo partly drawn) [Compound 121], the IC50 is > 100 nM in assay [1], > 100 nM in assay [2] and 98 nM in assay [3].

As to `[2H]C([2H])(Oc1nc2c3c(nc(-c4cc(N)cc(C)c4C(F)(F)F)c(F)c3n1)OCCN2C(C)c1cccnc1N)[C@@H]1C[C@@H](F)CN1C([2H])([2H])[2H]` (stereo partly drawn) [Compound 122], the 50% inhibitory concentration (IC50) came out at 11 nM in assay [1], 0.6 nM in assay [2] and 1 nM in assay [3].

`Cc1cc(N)cc(-c2nc3c4c(nc(OC[C@@H]5CCCN5C5COC5)nc4c2F)N(C(C)c2cccnc2N)CCO3)c1C(F)(F)F` (stereo partly drawn) [Compound 123]: the results for the IC50 in assay [1], in assay [2] and in assay [3] were > 100 nM, 2 nM and 4 nM, respectively.

`[2H]C([2H])(Oc1nc2c3c(nc(-c4cc(N)ccc4C(F)(F)F)c(F)c3n1)OCCN2C(C)c1cccnc1N)[C@@H]1C[C@@H](F)CN1C([2H])([2H])[2H]` (stereo partly drawn) [Compound 126]: the half-inhibitory concentration (IC50) was > 100 nM in assay [1], 7 nM in assay [2] and 31 nM in assay [3].

Consider `[2H]C1([2H])CC[C@@]2(C([2H])([2H])Oc3nc4c5c(nc(-c6cc(N)ccc6C(F)(F)F)c(F)c5n3)OCCN4C(C)c3cccnc3N)C[C@@H](F)CN12` (stereo partly drawn) [Compound 129], for which the 50% inhibitory concentration (IC50) in assay [1] amounted to 26 nM; in assay [2], 0.9 nM; in assay [3], 2 nM.

Take `CC(c1cccnc1N)N1CCOc2nc(-c3cc(O)cc(Cl)c3C3CC3)c(F)c3nc(OC[C@@H]4COCCN4C)nc1c23` (stereo partly drawn) [Compound 134]: the IC50 in assay [1] is > 100 nM; in assay [2], 31 nM; in assay [3], 34 nM.

Consider `CC(c1cccnc1N)N1CCOc2nc(-c3cc(N)c(F)cc3C(F)(F)F)c(F)c3nc(OC[C@@]45CCCN4C[C@H](F)C5)nc1c23` (stereo partly drawn) [Compound 135], for which the figures for the IC50 in assay [1], in assay [2] and in assay [3] were 30 nM, 2 nM and 3 nM, respectively.

On to `[2H]C([2H])(Oc1nc2c3c(nc(-c4cc(N)c(F)cc4C(F)(F)F)c(F)c3n1)OCCN2C(C)c1cccnc1N)[C@@H]1C[C@@H](F)CN1C([2H])([2H])[2H]` (stereo partly drawn) [Compound 136], for which the IC50 is > 100 nM in assay [1], 17 nM in assay [2] and 61 nM in assay [3].

`CC(c1cccnc1N)N1CCOc2nc(-c3cc(O)cc(Cl)c3C3CC3)c(F)c3nc(OC[C@@H]4CCCCN4C)nc1c23` (stereo partly drawn) [Compound 139]: the IC50 was > 100 nM in assay [1], 91 nM in assay [2] and > 100 nM in assay [3].

Take `[2H]C1([2H])CN(C(C)c2cccnc2N)c2nc(OC[C@@]34CCCN3C[C@H](F)C4)nc3c(F)c(-c4cc(N)cc(C)c4C(F)(F)F)nc(c23)O1` (stereo partly drawn) [Compound 140]: the half-inhibitory concentration (IC50) was 1 nM in assay [1], 0.3 nM in assay [2] and 0.9 nM in assay [3].

As to `[2H]C1([2H])CN(C([2H])(C)c2cccnc2N)c2nc(OC[C@@]34CCCN3C[C@H](F)C4)nc3c(F)c(-c4cc(N)cc(C)c4C(F)(F)F)nc(c23)O1` (stereo partly drawn) [Compound 141], the concentration for half-maximal inhibition (IC50) was > 100 nM in assay [1], 0.3 nM in assay [2] and 0.7 nM in assay [3].

For the molecule `Cc1cc(N)cc(-c2nc3c4c(nc(OC[C@@]56CCCN5C[C@H](F)C6)nc4c2F)N(C(C)c2cccnc2N)CCO3)c1C1CC1` (stereo partly drawn) [Compound 146], the results for the concentration for half-maximal inhibition (IC50) in assay [1], in assay [2] and in assay [3] were 16 nM, 0.8 nM and 3 nM, respectively.

As for `[2H]C1([2H])CC[C@@]2(COc3nc4c5c(nc(-c6cc(N)c(F)c(C)c6C(F)(F)F)c(F)c5n3)OCCN4C(C)c3cccnc3N)C[C@@]([2H])(F)CN12` (stereo partly drawn) [Compound 148], the IC50 in assay [1] stood at 1 nM; in assay [2], 0.2 nM; in assay [3], 0.3 nM.

With `[2H]C([2H])(Oc1nc2c3c(nc(-c4cc(N)c(F)c(C)c4C(F)(F)F)c(F)c3n1)OCCN2C(C)c1cccnc1N)[C@@H]1C[C@@H](F)CN1C([2H])([2H])[2H]` (stereo partly drawn) [Compound 149], the IC50 in assay [1] was determined as 7 nM; in assay [2], 0.3 nM; in assay [3], 0.9 nM.

On to `[2H]C1([2H])CC[C@@]2(COc3nc4c5c(nc(-c6cc(N)c(F)c(C)c6C(F)(F)F)c(F)c5n3)OCCN4C(C)c3cccnc3N)C[C@@H](F)CN12` (stereo partly drawn) [Compound 150], for which the IC50 was determined as 1 nM in assay [1], 0.2 nM in assay [2] and 0.3 nM in assay [3].

Consider `[2H]C1([2H])CN(C(C)c2cccnc2N)c2nc(OC[C@@]34CCCN3C[C@H](F)C4)nc3c(F)c(-c4cc(N)c(F)c(C)c4C(F)(F)F)nc(c23)O1` (stereo partly drawn) [Compound 157], for which the values for the concentration for half-maximal inhibition (IC50) in assay [1], in assay [2] and in assay [3] were 2 nM, 0.3 nM and 0.5 nM, respectively.

`CC(c1cccnc1N)N1CCOc2nc(-c3cc(N)c(F)c(F)c3F)c(F)c3nc(OC[C@@]45CCCN4C[C@H](F)C5)nc1c23` (stereo partly drawn) [Compound 158]: the values for the concentration for half-maximal inhibition (IC50) in assay [1], in assay [2] and in assay [3] were > 100 nM, 96 nM and > 100 nM, respectively.

On to `Cc1cc(O)cc(-c2nc3c4c(nc(OC[C@@]56CCCN5C[C@H](F)C6)nc4c2F)N(C(C)c2cccnc2N)CCO3)c1C1CC1` (stereo partly drawn) [Compound 159], for which the IC50 in assay [1] came out at 15 nM; in assay [2], 0.6 nM; in assay [3], 1 nM.

Turning to `Cc1cc(Nc2nc3c4c(nc(OC[C@@]56CCCN5C[C@H](F)C6)nc4c2F)N(C(C)c2cccnc2N)CCO3)c(F)cc1C(F)(F)F` (stereo partly drawn) [Compound 162], the IC50 in assay [1], in assay [2] and in assay [3] was > 100 nM in each case.

As for `Cc1c(F)c(N)cc(-c2nc3c4c(nc(OC[C@]56CCCN5C[C@@H](F)C6)nc4c2F)N(C(C)c2cccnc2N)CCO3)c1C(F)(F)F` (stereo partly drawn) [Compound 163], the IC50 worked out at 6 nM in assay [1], 0.2 nM in assay [2] and 0.4 nM in assay [3].

Consider `Cc1c(F)c(N)cc(-c2nc3c4c(nc(OC[C@]56CCCN5C[C@H](F)C6)nc4c2F)N(C(C)c2cccnc2N)CCO3)c1C(F)(F)F` (stereo partly drawn) [Compound 164], for which the IC50 stood at 3 nM in assay [1], 0.2 nM in assay [2] and 0.3 nM in assay [3].

Consider `Cc1c(F)c(N)cc(-c2nc3c4c(nc(OC[C@@]56CCCN5C[C@@H](F)C6)nc4c2F)N(C(C)c2cccnc2N)CCO3)c1C(F)(F)F` (stereo partly drawn) [Compound 165], for which the IC50 was 47 nM in assay [1], 1 nM in assay [2] and 3 nM in assay [3].

Consider `CC(c1cccnc1N)N1CCOc2nc(-c3cc(N)c(F)c(Cl)c3C(F)(F)F)c(F)c3nc(OC[C@@]45CCCN4C[C@H](F)C5)nc1c23` (stereo partly drawn) [Compound 168], for which the IC50 in assay [1] came to 2 nM; in assay [2], 0.2 nM; in assay [3], 0.4 nM.

On to `Cc1c(F)c(N)cc(-c2nc3c4c(nc(OC[C@@]56CCCN5CC(F)(F)C6)nc4c2F)N(C(C)c2cccnc2N)CCO3)c1C(F)(F)F` (stereo partly drawn) [Compound 171], for which the figures for the IC50 in assay [1], in assay [2] and in assay [3] were 27 nM, 0.5 nM and 2 nM, respectively.

As to `Cc1cc(N)cc(-c2nc3c4c(nc(OC[C@@]56CCCN5C[C@H](F)C6)nc4c2F)N(C(C)c2cc(F)cnc2N)CCO3)c1C(F)(F)F` (stereo partly drawn) [Compound 173], the half-maximal inhibitory concentration (IC50) in assay [1] amounted to 7 nM; in assay [2] it was 0.5 nM; in assay [3], 0.8 nM.
